Patent US20260083865A1, “PROSTATE SPECIFIC MEMBRANE ANTIGEN (PSMA) LIGANDS AND USE THEREOF” (priority 2022, published 2026)
Like-named read-outs stand apart in the source and are kept apart here. Numbered stars: 1 amine (or outer) side, 2 acyl side, 3 side chain; on linkers, the order of the positions; unused ones are H or OH. Bridge positions count the residues as written; N and C are the ends. Square brackets hold non-standard residues; d marks the D form. Side chains are listed from the residue outwards. Peptide text beside a SMILES is read from it. * marks the point of attachment. X3 = O=C(O)CN1CCN(CC(=O)O)CCN(CC(=O)NCCCOCCOCCOCCCN*)CCN(CC(=O)O)CC1; DOTA = O=C(O)CN1CCN(CC(=O)O)CCN(CC(=O)*)CCN(CC(=O)O)CC1; Phe(4-CF3) = N[C@@H](Cc1ccc(C(F)(F)F)cc1)C(=O)O; Phe(4-Cl) = N[C@@H](Cc1ccc(Cl)cc1)C(=O)O; X1 = O=C(CC1CCN([*:1])CC1)[*:2]; Aad = N[C@@H](CCCC(=O)O)C(=O)O; Suc = O=C(CCC(=O)[*:2])[*:1]; Tle = CC(C)(C)[C@H](N)C(=O)O; Nle = CCCC[C@H](N)C(=O)O; Api = NC1(C(=O)O)CCNCC1; Aib = CC(C)(N)C(=O)O; CH2 = C([*:1])[*:2]; GABA = NCCCC(=O)O

Assays:
[1] = target: T1, PSMA-expressing C4-2 cells (Homo sapiens, UniProt Q04609); experiment: FACS binding assay (competition with 50 nM PSM-0183); details: read-out: pIC50 [C4-2] CAT (converted)
T1 construct: PSMA-expressing C4-2 cells (ATCC, Cat. No. CRL-3314) were cultured in RPMI-1640; host or cells: C4-2 cells
Protocol: In order to determine binding of compounds according to the present invention to PSMA-expressing cells, a FACS binding assay was established.
PSMA-expressing C4-2 cells (ATCC, Cat. No. CRL-3314) were cultured in RPMI-1640 (Pan Biotech, Cat. No. P04-18050) including 10% fetal calf serum (Biochrom) and 100 U/ml penicillin and 100 μg/mL streptomycin (Sigma, Cat. No. P0781). Cells were detached with Accutase (Biolegend, Cat. No. BLD-423201) and washed in FACS buffer (PBS (Sigma, Cat. No. D8537) including 1% fetal calf serum). Cells were diluted in FACS buffer to a final concentration of 500,000 cells per mL. 200 μL of the cell suspension were transferred to a u-shaped non-binding 96-well plate (Greiner Bio-One, Cat. No. 650901) and cells were washed in ice-cold FACS buffer.
For IC50 determination, C4-2 cells were incubated with 50 nM PSM-0183 (Ac-Thr-Aib-Phe[Cys-Lys-Arg-Aib-Asn-Cys]-Tle-Thr-Asp-Ttds-Ttds-AF488N3K-NH2) in the presence of increasing concentrations of test compounds at 4° C. for 1 hour. After two wash steps with ice-cold FACS buffer, cells were analyzed in an Attune NxT flow cytometer. Median fluorescence intensities (MFI) of the FITC/AF488-channel were calculated by Attune NxT software. MFI values were plotted against peptide concentration and four parameter logistic (4PL) curve fitting and IC50/pIC50 calculations were performed using ActivityBase software (IDBS).

[2] = target: T2, Fc-fusion protein of human PSMA (hPSMA-Fc) (Homo sapiens, UniProt Q04609); experiment: Surface plasmon resonance assay (Biacore T200, single cycle kinetic); type: binding; details: hPSMA-Fc, 25° C., read-out: pKD CAT (converted)
T2 construct: purchased Acro Biosystems PSA-H5264
Protocol: Surface plasmon resonance (SPR) studies were performed using a Biacore™ T200 SPR system. Briefly, polarized light is directed towards a gold-labeled sensor surface, and minimum intensity reflected light is detected. The angle of reflected light changes as molecules bind and dissociate.
Fc-fusion protein of human PSMA (hPSMA-Fc, Acro Biosystems, Cat #PSA-H5264) was captured on a Fc-capture chip (Biacore™ CM5 sensor chip coated with ˜300 RU of an Fc-binding peptide). hPSMA-Fc was diluted in Running Buffer (HBST, 0.1% DMSO) to a final concentration of 100 nM and then flushed over the Fc-capture chip to immobilized ˜1000 RUs.
Stock solutions of test compounds were prepared by dissolving each compound in DMSO. DMSO stock solution were diluted 1:1000 in Running Buffer without DMSO. Further sequential dilutions were made with Running Buffer containing 0.1% DMSO. SPR binding analyses were performed in Single Cycle Kinetic (SCK) mode at 25° C. Flow cell coated with the Fc-binding peptide only served as reference flowcell. After each SCK run, hPSMA-Fc was removed with 10 mM glycine buffer, pH 1.5.
In between every three SCK measurements, a blank run with Running Buffer instead of test compound was included to correct for baseline drifts (double blanking method).
Table 5 describes the protocol steps for Fc-fusion target capturing and assessment of the binding kinetics.
For each test compound, SPR raw data in the form of resonance units (RU) were plotted as sensorgrams using the Biacore™ T200 control software. The signal from the blank sensorgram was subtracted from that of the test compound sensorgram (blank corrected). The blank corrected sensorgram was corrected for baseline drift by subtracting the sensorgram of a SCK run without the test compound (running buffer only). The dissociation constant (KD) was calculated from Blank-normalized SPR data using the 1:1 Langmuir binding model from the Biacore™ Insight Evaluation software. The pKD value (negative decadic logarithm of dissociation constant) was calculated using Microsoft Excel.

[3] = pIC50 category of FACS binding, C4-2 cells
[4] = pKD category for PSMA SPR activity assay
[5] = FACS binding, PSMA-expressing C4-2 cells, pIC50 category

T2 sequence (Q04609 44-750 limits assumed): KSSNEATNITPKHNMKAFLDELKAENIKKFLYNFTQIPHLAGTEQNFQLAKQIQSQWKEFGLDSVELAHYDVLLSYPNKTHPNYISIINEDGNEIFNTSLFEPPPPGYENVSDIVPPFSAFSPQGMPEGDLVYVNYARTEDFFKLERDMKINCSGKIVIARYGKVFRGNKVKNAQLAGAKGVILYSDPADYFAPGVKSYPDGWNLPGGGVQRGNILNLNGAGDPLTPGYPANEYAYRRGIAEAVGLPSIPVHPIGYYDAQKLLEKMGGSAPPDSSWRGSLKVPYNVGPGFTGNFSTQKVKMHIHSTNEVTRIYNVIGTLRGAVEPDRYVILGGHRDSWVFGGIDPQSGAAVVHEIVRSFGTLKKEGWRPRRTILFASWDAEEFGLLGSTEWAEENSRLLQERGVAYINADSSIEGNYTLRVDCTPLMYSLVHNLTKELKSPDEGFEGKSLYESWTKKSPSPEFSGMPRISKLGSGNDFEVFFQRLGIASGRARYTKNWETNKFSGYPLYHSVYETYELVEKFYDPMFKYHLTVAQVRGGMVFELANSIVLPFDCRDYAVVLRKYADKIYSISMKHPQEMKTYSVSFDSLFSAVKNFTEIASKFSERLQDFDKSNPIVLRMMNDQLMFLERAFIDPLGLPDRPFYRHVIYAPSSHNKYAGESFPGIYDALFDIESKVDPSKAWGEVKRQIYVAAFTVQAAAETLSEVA
T1 sequence (Q04609 whole entry): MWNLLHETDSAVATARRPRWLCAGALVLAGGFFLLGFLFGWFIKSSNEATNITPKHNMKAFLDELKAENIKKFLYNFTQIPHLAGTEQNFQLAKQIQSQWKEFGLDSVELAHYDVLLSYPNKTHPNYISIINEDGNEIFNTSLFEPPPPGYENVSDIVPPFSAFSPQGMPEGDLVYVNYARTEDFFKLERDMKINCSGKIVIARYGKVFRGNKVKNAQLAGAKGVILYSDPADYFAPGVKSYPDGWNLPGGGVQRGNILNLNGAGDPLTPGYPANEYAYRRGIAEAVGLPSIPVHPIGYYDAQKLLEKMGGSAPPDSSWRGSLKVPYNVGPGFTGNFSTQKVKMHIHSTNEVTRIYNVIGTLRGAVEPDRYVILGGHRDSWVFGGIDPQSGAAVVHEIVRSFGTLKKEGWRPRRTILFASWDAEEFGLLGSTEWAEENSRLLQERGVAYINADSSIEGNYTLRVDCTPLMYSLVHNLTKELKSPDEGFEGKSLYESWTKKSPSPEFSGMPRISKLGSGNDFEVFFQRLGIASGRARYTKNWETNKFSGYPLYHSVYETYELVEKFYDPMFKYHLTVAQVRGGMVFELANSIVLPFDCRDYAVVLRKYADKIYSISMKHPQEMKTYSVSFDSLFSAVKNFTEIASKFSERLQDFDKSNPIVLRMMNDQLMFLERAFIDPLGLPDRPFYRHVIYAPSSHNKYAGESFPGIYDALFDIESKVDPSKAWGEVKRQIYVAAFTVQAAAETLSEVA

| SMILES | IC50 [1, 3] | Kd [2, 4] | IC50 [1, 5] | Kd ([2]; PSMA SPR assay, pKD category) |
| --- | --- | --- | --- | --- |
| CC(=O)N[C@H](C(=O)NC(C)(C)C(=O)N[C@@H](Cc1ccccc1)C(=O)N[C@H]1CSSC[C@@H](C(=O)N[C@H](C(=O)N[C@H](C(N)=O)[C@@H](C)O)C(C)(C)C)NC(=O)[C@H](CC(N)=O)NC(=O)[C@H](CCCCNC(=O)CCC(=O)NCCCOCCOCCOCCCNC(=O)CN2CCN(CC(=O)O)CCN(CC(=O)O)CCN(CC(=O)O)CC2)NC(=O)[C@H](CCC(N)=O)NC(=O)[C@H](CCCCN)NC1=O)[C@@H](C)O [PSM-0423, Ac-Thr-Aib-Phe-[Cys-Lys-Gln-Lys(DOTA-Ttds)-Asn-Cys]-Tle-Thr-NH2] (Ac-T[Aib]FCKQK([Suc-X3])NC[Tle]T-NH2; disulfide 4-9) | 0.2 to 1.26 µM | 0.0126 to 0.126 µM |  |  |
| CC(=O)N[C@H](C(=O)NC(C)(C)C(=O)N[C@@H](Cc1ccc(C(F)(F)F)cc1)C(=O)N[C@H]1CSSC[C@@H](C(=O)N[C@H](C(=O)N[C@H](C(N)=O)[C@@H](C)O)C(C)(C)C)NC(=O)[C@H](CC(N)=O)NC(=O)C(C)(C)NC(=O)[C@H](CCCNC(=N)N)NC(=O)[C@H](CCCCN)NC1=O)[C@@H](C)O [PSM-0550, Ac-Thr-Aib-Ptf-[Cys-Lys-Arg-Aib-Asn-Cys]-Tle-Thr-NH2] (Ac-T[Aib][Phe(4-CF3)]CKR[Aib]NC[Tle]T-NH2; disulfide 4-9) | < 0.2 µM | < 0.0126 µM |  |  |
| CCCC[C@H](NC(=O)[C@@H]1CSSC[C@H](NC(=O)[C@H](Cc2ccccc2)NC(=O)[C@H](C)NC(=O)[C@@H](NC(C)=O)[C@@H](C)O)C(=O)N[C@@H](CCCCN)C(=O)N[C@@H](CCCNC(=N)N)C(=O)N[C@@H](C)C(=O)N[C@@H](CC(N)=O)C(=O)N1)C(=O)N[C@H](C(=O)NCCCC(=O)O)[C@@H](C)O [PSM-0313, Ac-Thr-Ala-Phe-[Cys-Lys-Arg-Ala-Asn-Cys]-Nle-Thr-Gab-OH] (Ac-TAFCKRANC[Nle]T[GABA]-OH; disulfide 4-9) |  |  | 0.2 to 1.26 µM | 0.126 to 0.501 µM |
| C[C@@H](O)[C@H](NC(=O)[C@@H](NC(=O)[C@@H]1CSSC[C@H](NC(=O)[C@H](Cc2ccc(Cl)cc2)NC(=O)C(C)(C)NC(=O)[C@@H](NC(=O)CC2CCN(C(=O)CN3CCN(CC(=O)O)CCN(CC(=O)O)CCN(CC(=O)O)CC3)CC2)[C@@H](C)O)C(=O)N[C@@H](CCCC(N)=O)C(=O)N[C@@H](CCCNC(=N)N)C(=O)NC(C)(C)C(=O)N[C@@H](CC(N)=O)C(=O)N1)C(C)(C)C)C(N)=O [PSM-0485, DOTA-Cmp-Thr-Aib-Pcf-[Cys-Hgn-Arg-Aib-Asn-Cys]-Tle-Thr-NH2] ({DOTA}-[X1]T[Aib][Phe(4-Cl)]C[Aad](NH2)R[Aib]NC[Tle]T-NH2; disulfide 5-10) | < 0.2 µM | < 0.0126 µM |  |  |
| C[C@@H](O)[C@H](NC(=O)CC1CCN(C(=O)CN2CCN(CC(=O)O)CCN(CC(=O)O)CCN(CC(=O)O)CC2)CC1)C(=O)NC(C)(C)C(=O)N[C@@H](Cc1ccc(Cl)cc1)C(=O)N[C@H]1CSCSC[C@@H](C(=O)N[C@H](C(N)=O)C(C)(C)C)NC(=O)[C@H](CC(N)=O)NC(=O)C(C)(C)NC(=O)[C@H](CCCNC(=N)N)NC(=O)[C@H](CCCCN)NC1=O [PSM-0332, DOTA-Cmp-Thr-Aib-Pcf-[Smc-Lys-Arg-Aib-Asn-Cys]-Tle-NH2] ({DOTA}-[X1]T[Aib][Phe(4-Cl)]CKR[Aib]NC[Tle]-NH2; linker 5-10 via CH2) |  |  | < 0.2 µM | < 0.0126 µM |
| CC(=O)N[C@H](C(=O)NC(C)(C)C(=O)N[C@@H](Cc1ccccc1)C(=O)N[C@H]1CSSC[C@@H](C(=O)N[C@H](C(=O)N[C@H](C(N)=O)[C@@H](C)O)C(C)(C)C)NC(=O)[C@H](CC(N)=O)NC(=O)C2(CCN(C(=O)CN3CCN(CC(=O)O)CCN(CC(=O)O)CCN(CC(=O)O)CC3)CC2)NC(=O)[C@H](CCCNC(=N)N)NC(=O)[C@H](CCCCN)NC1=O)[C@@H](C)O [PSM-0321, Ac-Thr-Aib-Phe-[Cys-Lys-Arg-Apc (DOTA)-Asn-Cys]-Tle-Thr-NH2] (Ac-T[Aib]FCKR[Api](DOTA)NC[Tle]T-NH2; disulfide 4-9) |  |  | < 0.2 µM | < 0.0126 µM |
